Laboratory results reported in PubChem BioAssay AID2060890 (Molecular Pharmacology Branch, DTP, NCI, 2025).

Test system: LG0703-F948-PDC complex spheroid viability
Assay: Anticancer human tumor LG0703-F948-PDC patient-derived lung adenocarcinoma cell line growth inhibition [RAS]
Details: for IC50: curve of first compound; for viability, T/C: stronger effect = lower value
Description: RAS pathway inhibitors in Combinations in Complex Spheroids
A high-throughput screen of multi-cell type tumor spheroids was designed to identify active combinations of RAS pathway inhibitors and targeted small molecules. Complex spheroids include a stromal component modeled by human endothelial cells (HUVEC) and fibroblasts modeled by human mesenchymal stem cells (MSCs). The concentration ranges selected for each drug and investigational agent were based upon clinically achievable concentrations if the clinical Cmax of the agent was known.
Compounds. The drugs and investigational agents: abemaciclib (NSC768073), cobimetinib (NSC768068), divarasib (GDC6063, NSC841802), docetaxel (NSC628503), GDC-1971 (RLY-1971, NSC841576), gemcitabine (NSC613327), inavolisib (NSC800729), ipatasertib (NSC767898), KB-0742 (NSC834161), MRTX-1133 (NSC836407), osimertinib (NSC779217), RMC-4630 (NSC839698), RMC-6236 (NSC851965), RMC-6291 (NSC852671), Ro-3306 (NSC812927), sapanisertib (NSC764658), SN-38 (NSC673596), staurosporine (NSC755774), SY5609 (NSC837396), and tovorafenib (DAY101, NSC766906), were obtained from the National Cancer Institute (NCI) Developmental Therapeutics Program Chemical Repository. The FDA-approved anticancer drug set is available from the NCI Developmental Therapeutics Program. […] The stock solutions were prepared in dimethyl sulfoxide (DMSO, Sigma-Aldrich, St. Louis, MO, cat. D2650) at 800-fold the tested concentration and stored at -70 degrees C prior to their use. All drugs and investigational agents were tested over a range starting from a high concentration at or near the clinical Cmax and decreasing in half-log increments. If the clinical Cmax for an agent had not been determined, the highest concentration tested was 10 microM.
Cell Culture. All cells were maintained in an incubator at 37 degrees C and 5% CO2 with 95% humidity. The PDC lines were cultured according to standard operating procedures established by the NCI PDMR. All PDCs were thawed and cultured in Matrigel-coated flasks prepared with a working solution of 1X Ham's F-12 nutrient mix, without supplementation (Invitrogen, Waltham, MA, cat. 11765054), 100 U/mL penicillin-streptomycin (Invitrogen, cat. 15140122), and 2.5% Matrigel (Corning Inc., Corning, NY, cat. 354248) for the first three passages. The 362531-283-R-J2-PDC and 782815-120-R-J1-PDC lines were cultured in 6C/Colon 1B media, which includes advanced DMEM/F-12 (Thermo Fisher Scientific, cat. 12634028), 10 mM HEPES (Thermo Fisher Scientific, cat. 15630080), 1X GlutaMAX supplement (Thermo Fisher Scientific, cat. 35050061), 0.1 mg/mL primocin (InvivoGen, San Diego, CA, cat. ant-pm-2), 10% defined fetal bovine serum, heat inactivated (HyClone Laboratories Inc., Logan, UT, cat. SH30070.03HI), 50% L-WRN conditioned media (ATCC, cat. CRL-3276), 1.25 mM N-Acetyl-L-cysteine (Sigma-Aldrich, cat. A9165), 10 mM nicotinamide (Sigma-Aldrich, cat. N0636), 1X B-27 supplement (Thermo Fisher Scientific, cat. 17504044), 1X N-2 supplement (Thermo Fisher Scientific, cat. 17502048), 50 ng/mL human EGF (Thermo Fisher Scientific, cat. PHG0311), and 10 microM Y-27632 dihydrochloride (Tocris Bioscience, cat. 1254). The K12877-001-R-J1-PDC line was cultured in 6I media, which includes all 6C/Colon 1B media plus 10 ng/mL human FGF-10 (PeproTech, cat. 100-26), 1 ng/mL human FGF-2 (PeproTech, cat. 100-18B), 1 µM prostaglandin E2 (Tocris Bioscience, cat. 2296), […] hydrocortisone (Sigma-Aldrich, cat. H4001), and […] bovine insulin (Sigma-Aldrich, cat. I6634). The K86415-001-R-J1-PDC line was cultured in 6D media, which includes all 6C/Colon 1B media components minus the L-WRN conditioned media. The 485176-168-R4-J1-PDC was cultured in PANC media, which includes all 6C/Colon 1B media plus 100 ng/mL human FGF-10 (PeproTech, cat. 100-26), 500 nM SB-431542 (Selleckchem, cat. S1067), and 10 nM gastrin (Tocris Bioscience, cat. 3006). […]

[1] = second compound 0.0316 µM, first compound 0.0316 µM
[2] = second compound 0.0316 µM, first compound 0.1 µM
[3] = second compound 0.0316 µM, first compound 0.316 µM
[4] = second compound 0.0316 µM, first compound 1 µM
[5] = second compound 0.0316 µM, first compound 3.16 µM
[6] = second compound 0.0316 µM, first compound 10 µM
[7] = second compound 0.1 µM, first compound 0.0316 µM
[8] = second compound 0.1 µM, first compound 0.1 µM
[9] = second compound 0.1 µM, first compound 0.316 µM
[10] = second compound 0.1 µM, first compound 1 µM
[11] = second compound 0.1 µM, first compound 3.16 µM
[12] = second compound 0.1 µM, first compound 10 µM
[13] = second compound 0.316 µM, first compound 0.0316 µM
[14] = second compound 0.316 µM, first compound 0.1 µM
[15] = second compound 0.316 µM, first compound 0.316 µM
[16] = second compound 0.316 µM, first compound 1 µM
[17] = second compound 0.316 µM, first compound 3.16 µM
[18] = second compound 0.316 µM, first compound 10 µM
[19] = second compound 1 µM, first compound 0.0316 µM
[20] = second compound 1 µM, first compound 0.1 µM
[21] = second compound 1 µM, first compound 0.316 µM
[22] = second compound 1 µM, first compound 1 µM
[23] = second compound 1 µM, first compound 3.16 µM
[24] = second compound 1 µM, first compound 10 µM
[25] = second compound 3.16 µM, first compound 0.0316 µM
[26] = second compound 3.16 µM, first compound 0.1 µM
[27] = second compound 3.16 µM, first compound 0.316 µM
[28] = second compound 3.16 µM, first compound 1 µM
[29] = second compound 3.16 µM, first compound 3.16 µM
[30] = second compound 3.16 µM, first compound 10 µM
[31] = second compound 10 µM, first compound 0.0316 µM
[32] = second compound 10 µM, first compound 0.1 µM
[33] = second compound 10 µM, first compound 0.316 µM
[34] = second compound 10 µM, first compound 1 µM
[35] = second compound 10 µM, first compound 3.16 µM
[36] = second compound 10 µM, first compound 10 µM
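For viability, T/C in this document: 100% = DMSO vehicle wells.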

SMILES: CC(C)NCC(C(=O)N1CCN(c2ncnc3c2C(C)CC3O)CC1)c1ccc(Cl)cc1 (stereo unspecified) + C#Cc1c(F)ccc2cc(O)cc(-c3ncc4c(N5CC6CCC(C5)N6)nc(OCC56CCCN5CC(F)C6)nc4c3F)c12
- IC50 (second compound 0.0316 µM): 601 nM
- IC50 (second compound 0.1 µM): 699 nM
- IC50 (second compound 0.316 µM): 238 nM
- IC50 (second compound 1 µM): 257 nM
- IC50 (second compound 3.16 µM): 59.4 nM
- IC50 (second compound 10 µM): < 31.6 nM
- viability, T/C [1]: 90%
- viability, T/C [2]: 67.3%
- viability, T/C [3]: 59.7%
- viability, T/C [4]: 46.4%
- viability, T/C [5]: 29.8%
- viability, T/C [6]: 26.1%
- viability, T/C [7]: 86.1%
- viability, T/C [8]: 68.2%
- viability, T/C [9]: 64.5%
- viability, T/C [10]: 40.5%
- viability, T/C [11]: 37.5%
- viability, T/C [12]: 22.9%
- viability, T/C [13]: 82.5%
- viability, T/C [14]: 60%
- viability, T/C [15]: 44.5%
- viability, T/C [16]: 35%
- viability, T/C [17]: 31.1%
- viability, T/C [18]: 15.8%
- viability, T/C [19]: 68.6%
- viability, T/C [20]: 63.6%
- viability, T/C [21]: 47.5%
- viability, T/C [22]: 25.6%
- viability, T/C [23]: 20.4%
- viability, T/C [24]: 10.2%
- viability, T/C [25]: 57.6%
- viability, T/C [26]: 43.4%
- viability, T/C [27]: 32.9%
- viability, T/C [28]: 17.8%
- viability, T/C [29]: 11.7%
- viability, T/C [30]: 7.15%
- viability, T/C [31]: 34%
- viability, T/C [32]: 33.9%
- viability, T/C [33]: 17.9%
- viability, T/C [34]: 8.97%
- viability, T/C [35]: 3.2%
- viability, T/C [36]: 0.42%

SMILES: CC(C)n1nc(-c2ccc3oc(N)nc3c2)c2c(N)ncnc21 + C#Cc1c(F)ccc2cc(O)cc(-c3ncc4c(N5CC6CCC(C5)N6)nc(OCC56CCCN5CC(F)C6)nc4c3F)c12
- IC50 (second compound 0.0316 µM): 4.71 nM
- IC50 (second compound 0.1 µM): 3.96 nM
- IC50 (second compound 0.316 µM): 3.99 nM
- IC50 (second compound 1 µM): 2.13 nM
- IC50 (second compound 3.16 µM): 0.608 nM
- IC50 (second compound 10 µM): 0.343 nM
- viability, T/C (second compound 0.0316 µM, first compound 0.000316 µM): 90.7%
- viability, T/C (second compound 0.0316 µM, first compound 0.001 µM): 82.5%
- viability, T/C (second compound 0.0316 µM, first compound 0.00316 µM): 59.2%
- viability, T/C (second compound 0.0316 µM, first compound 0.01 µM): 32%
- viability, T/C [1]: 18%
- viability, T/C [2]: 12.3%
- viability, T/C (second compound 0.1 µM, first compound 0.000316 µM): 80.7%
- viability, T/C (second compound 0.1 µM, first compound 0.001 µM): 85.6%
- viability, T/C (second compound 0.1 µM, first compound 0.00316 µM): 47.7%
- viability, T/C (second compound 0.1 µM, first compound 0.01 µM): 34%
- viability, T/C [7]: 19.7%
- viability, T/C [8]: 11%
- viability, T/C (second compound 0.316 µM, first compound 0.000316 µM): 88.3%
- viability, T/C (second compound 0.316 µM, first compound 0.001 µM): 75.3%
- viability, T/C (second compound 0.316 µM, first compound 0.00316 µM): 57.6%
- viability, T/C (second compound 0.316 µM, first compound 0.01 µM): 27.1%
- viability, T/C [13]: 11.2%
- viability, T/C [14]: 8.26%
- viability, T/C (second compound 1 µM, first compound 0.000316 µM): 67.6%
- viability, T/C (second compound 1 µM, first compound 0.001 µM): 51%
- viability, T/C (second compound 1 µM, first compound 0.00316 µM): 50.2%
- viability, T/C (second compound 1 µM, first compound 0.01 µM): 21.1%
- viability, T/C [19]: 9.33%
- viability, T/C [20]: 5.14%
- viability, T/C (second compound 3.16 µM, first compound 0.000316 µM): 58.6%
- viability, T/C (second compound 3.16 µM, first compound 0.001 µM): 44.2%
- viability, T/C (second compound 3.16 µM, first compound 0.00316 µM): 23.4%
- viability, T/C (second compound 3.16 µM, first compound 0.01 µM): 13.9%
- viability, T/C [25]: 5.52%
- viability, T/C [26]: 3.09%
- viability, T/C (second compound 10 µM, first compound 0.000316 µM): 50.9%
- viability, T/C (second compound 10 µM, first compound 0.001 µM): 37.8%
- viability, T/C (second compound 10 µM, first compound 0.00316 µM): 16.5%
- viability, T/C (second compound 10 µM, first compound 0.01 µM): 4.6%
- viability, T/C [31]: 2.45%
- viability, T/C [32]: 0.63%

SMILES: C[C@@H](NC(=O)c1ncnc(N)c1Cl)c1ncc(C(=O)Nc2cc(C(F)(F)F)c(Cl)cn2)s1 + C#Cc1c(F)ccc2cc(O)cc(-c3ncc4c(N5CC6CCC(C5)N6)nc(OCC56CCCN5CC(F)C6)nc4c3F)c12
- IC50 (second compound 0.0316 µM): > 10000 nM
- IC50 (second compound 0.1 µM): > 10000 nM
- IC50 (second compound 0.316 µM): > 10000 nM
- IC50 (second compound 1 µM): > 10000 nM
- IC50 (second compound 3.16 µM): > 10000 nM
- IC50 (second compound 10 µM): > 10000 nM
- viability, T/C [1]: 108%
- viability, T/C [2]: 92.3%
- viability, T/C [3]: 101%
- viability, T/C [4]: 96.7%
- viability, T/C [5]: 103%
- viability, T/C [6]: 104%
- viability, T/C [7]: 87.5%
- viability, T/C [8]: 87.6%
- viability, T/C [9]: 98.3%
- viability, T/C [10]: 103%
- viability, T/C [11]: 104%
- viability, T/C [12]: 98.3%
- viability, T/C [13]: 85.8%
- viability, T/C [14]: 76.6%
- viability, T/C [15]: 87.3%
- viability, T/C [16]: 95.4%
- viability, T/C [17]: 109%
- viability, T/C [18]: 99%
- viability, T/C [19]: 86.7%
- viability, T/C [20]: 74.1%
- viability, T/C [21]: 64.3%
- viability, T/C [22]: 83.5%
- viability, T/C [23]: 73.5%
- viability, T/C [24]: 80%
- viability, T/C [25]: 63.1%
- viability, T/C [26]: 66.3%
- viability, T/C [27]: 58.6%
- viability, T/C [28]: 68%
- viability, T/C [29]: 65.4%
- viability, T/C [30]: 66.6%
- viability, T/C [31]: 56.8%
- viability, T/C [32]: 60.5%
- viability, T/C [33]: 56.4%
- viability, T/C [34]: 56.1%
- viability, T/C [35]: 70.9%
- viability, T/C [36]: 39.5%
